Reference: patent publication US20110053995A1, “BENZENESULFONANILIDE COMPOUND INHIBITORS OF UREA TRANSPORTERS” (THE REGENTS OF THE UNIVERSITY OF CALIFORNIA, priority 2006, published 2011)
Where two headings read alike, the source gives them in different places.

Tests used:
UT-B = biological target: T1, UT-B (Homo sapiens, UniProt Q13336); test: RBC lysis assay, human RBCs; assay type: cell-based
T1 construct: a red blood cell (i.e., erythrocyte), which endogenously expresses the urea transporter UT-B; endogenous in cells; host or cells: human red blood cells (whole venous blood, single donor)
T1 sequence (Q13336 1-389): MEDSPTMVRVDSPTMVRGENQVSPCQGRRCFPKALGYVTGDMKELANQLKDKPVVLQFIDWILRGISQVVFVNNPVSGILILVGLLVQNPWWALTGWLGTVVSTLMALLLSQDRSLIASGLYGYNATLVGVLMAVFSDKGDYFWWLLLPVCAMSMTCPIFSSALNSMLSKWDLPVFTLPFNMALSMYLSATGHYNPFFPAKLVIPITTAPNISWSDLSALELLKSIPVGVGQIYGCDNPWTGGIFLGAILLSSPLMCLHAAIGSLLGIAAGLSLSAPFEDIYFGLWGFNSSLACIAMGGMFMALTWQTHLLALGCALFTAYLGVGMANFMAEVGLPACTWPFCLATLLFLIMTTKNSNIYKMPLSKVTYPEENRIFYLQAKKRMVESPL
Text: Vigorous mixing was achieved by repeated pipetting.

rat UT-A1 = biological target: T2, rat UT-A1 (Rattus norvegicus, UniProt Q62668); test: UT-A1-facilitated urea flux across MDCK-UT-A1 cell layers; assay type: cell-based; conditions: for inhibition of rat UT-A1: 25 μM
T2 construct: expressed in transfected cells; host or cells: MDCK cells (gift of Dr. Jeffrey Sands, Emory University)
T2 sequence (Q62668 1-929): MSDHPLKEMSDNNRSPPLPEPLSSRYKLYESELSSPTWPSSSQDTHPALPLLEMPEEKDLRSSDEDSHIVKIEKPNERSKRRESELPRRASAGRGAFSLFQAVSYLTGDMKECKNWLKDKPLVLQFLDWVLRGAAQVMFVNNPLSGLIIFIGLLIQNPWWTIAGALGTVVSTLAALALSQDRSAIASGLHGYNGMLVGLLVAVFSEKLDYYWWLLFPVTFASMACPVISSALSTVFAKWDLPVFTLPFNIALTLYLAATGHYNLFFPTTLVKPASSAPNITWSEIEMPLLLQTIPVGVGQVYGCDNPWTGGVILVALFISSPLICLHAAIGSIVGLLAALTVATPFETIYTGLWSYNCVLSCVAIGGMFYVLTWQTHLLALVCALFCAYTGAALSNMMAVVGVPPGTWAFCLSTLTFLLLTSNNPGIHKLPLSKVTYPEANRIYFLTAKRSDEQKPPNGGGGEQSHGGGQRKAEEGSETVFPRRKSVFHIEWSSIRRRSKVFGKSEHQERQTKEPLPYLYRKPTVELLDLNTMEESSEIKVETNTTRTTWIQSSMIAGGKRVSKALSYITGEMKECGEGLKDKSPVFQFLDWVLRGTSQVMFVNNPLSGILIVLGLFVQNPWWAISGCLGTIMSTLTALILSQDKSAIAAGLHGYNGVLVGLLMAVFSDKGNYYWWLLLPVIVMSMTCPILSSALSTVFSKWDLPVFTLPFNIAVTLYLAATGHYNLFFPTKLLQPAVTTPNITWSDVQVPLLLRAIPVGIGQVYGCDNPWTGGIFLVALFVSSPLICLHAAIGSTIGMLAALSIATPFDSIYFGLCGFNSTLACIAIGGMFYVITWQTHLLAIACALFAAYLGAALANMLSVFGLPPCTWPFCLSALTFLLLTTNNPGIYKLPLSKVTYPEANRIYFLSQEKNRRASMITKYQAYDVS
Method: Concentration-inhibition studies were performed to study the effect of the active mouse UT-B inhibitors on urea transport by UT-A. The amino acid sequences of UT-B and UT-A urea transporter isoforms share significant similarity. The cells used in these studies were MDCK cells that expressed rat UT-A1. MDCK-UT-A1-expressing cells were grown on collagen-coated porous filters until they were electrically tight, at which point 15 mM urea was introduced into buffer bathing the basolateral cell surface.
MDCK cells stably transfected with rat UT-A1 (MDCK-UT-A1) (Fröhlich et al., Am J Physiol. in press; Fröhlich et al., Am. J. Physiol. Cell Physiol. 286:C1264-70 (2004). Epub on Jan. 28, 2004) were generously provided by Dr. Jeffrey Sands (Emory University School of Medicine, Atlanta, Ga.). Cells were grown in Dulbecco's Modified Eagle Medium (DMEM) with bicarbonate and supplemented with 10% fetal bovine serum (FBS), 25 mM HEPES buffer, penicillin G (100 U/mL), streptomycin (100 μg/mL) and hygromycin (500 μg/mL). For determining urea flux, cells were grown on 12-mm collagen-coated TRANSWELL inserts (0.4 μm pore size; Costar) as described (Fröhlich et al., Am J Physiol. in press; Fröhlich et al., 2004, supra). The TRANSWELL inserts were incubated in hygromycin-free medium for 1 hr in a 5% CO2 tissue culture incubator (37° C.), and then 2×10^5 cells/cm^2 were loaded onto each insert. Cells were used after culturing the cells for 4 days in hygromycin-free medium, at which time they formed tight monolayers (transepithelial resistance 500-600 Ω·cm^2).
UT-A1-facilitated urea flux in the basolateral-to-apical direction across unstimulated and forskolin-stimulated MDCK-UT-A1 cell layers was measured in response to a 15-mM urea gradient. Experiments were carried out in 12-well plates in which PBS, containing either DMSO vehicle or forskolin, with or without UT-B inhibitor, added to both the apical-facing (0.2 mL) and basal-facing (1 mL) surfaces of cells on the porous filters. Cultures were incubated in the absence of urea for 30 min at 37° C. Then, the basal-facing solution was replaced with PBS (containing same components) with 15 mM urea. Five μL samples of apical fluid were collected at specified times during incubation at 37° C., and urea concentration was determined using a commercial kit based on chromogenic urea complexation at 520-nm wavelength (Quantichrom™ Urea Assay Kit, BioAssay Systems, Hayward, Calif.). Forskolin (10 μM), with or without UT-B transport inhibitors, was added from 1000× DMSO stock solutions (0.2% final DMSO content). Inhibition of UT-A1-mediated transport was defined as % inhibition=100% (Aforsk−Atest)/(Aforsk−Aphlor). Aforsk, and Aphlor were averaged absorbance values (at 520 nm) for cultures treated with forskolin and forskolin+phloretin, respectively, and Atest were values from cultures treated with forskolin+test compound.

RBCs from wild-type mice = test: Osmotic water permeability, RBCs from wild-type mice; assay type: cell-based, mouse
Method: FIGS. 8A-B illustrate UT-B-facilitated water transport by ‘chemical UT-B knock-out’. Osmotic water permeability was measured from the time course of RBC volume in response to a 250-mM inwardly directed sucrose gradient. FIG. 8A presents representative traces of mouse RBC water permeability performed at 10° C., with genotypes and conditions indicated. Inhibitors ureainh-201 and ureainh-302 were used at 25 μM. FIG. 8B presents osmotic water permeability coefficients (Pf) from experiments as illustrated in FIG. 8A (±SE, 3-7 curves per group of RBCs pooled from 4 mice per genotype). *, P<0.01 compared with no inhibitor; #, P<0.01 compared with wild-type (no inhibitor).
RBC urea and water permeabilities were assayed by stopped-flow light scattering using a Hi-Tech Sf-51 instrument (Wiltshire, UK). For measurement of urea permeability, dilutions of whole blood (human or mouse; see Example 1) in PBS (hematocrit: approximately 0.5%) were incubated with test compounds for 5 min and then subjected to a 250-mM inwardly directed gradient of urea. After an initial osmotic shrinking phase, the kinetics of increasing cell volume caused by urea influx were measured as the time-course of 90° scattered light intensity at 530 nm, with increasing cell volume resulting in reduced scattered light intensity. As a positive control, 0.7 mM phloretin was added to the RBC suspension prior to stopped-flow experiments. Measurements of water permeability were carried out similarly, with sucrose (cell-impermeant) used instead of urea to establish a 250-mM osmotic gradient. As a positive control, HgCl2 (0.3 mM) was added to the RBC suspension prior to stopped-flow measurements. Osmotic water permeability coefficients (Pf) were computed from light scattering data as described (van Hoek et al., J Biol Chem. 267:18267-69 (1992)).
This example describes chemical knock-out of UT-B by UT-B inhibitors in RBCs and the effect on UT-B-facilitated Water transport. […] Osmotic water permeability was measured by stopped-flow light scattering in RBCs from wild-type and AQP1-null mice as shown in FIG. 8A. […] AQP1-null RBCs had greater than 5-fold reduced Pf compared to wild-type RBCs.

UT = conditions: non-specific membrane intercalating agent; cited from earlier work
[1] = Table 2, read-out: EC50 (μM), UT-B inhibitory potency
[2] = lysis assay, FIG. 5B, read-out: apparent EC50

NC(=O)c1ccc(S(=O)(=O)Nc2ccc3c(c2)OCCO3)cc1 [ureainh-207, 4-(N-(2,3-dihydrobenzo [b][1,4]dioxin-6-yl)sulfamoyl)benzamide]
EC50 (UT-B; [1]): 2 µM

COc1cccc(S(=O)(=O)Nc2ccc3c(c2)OCCO3)c1 [ureainh-209, N-(2,3-dihydrobenzo [b][1,4]dioxin-6-yl)-3-Methoxybenzenesulfonamide]
EC50 (UT-B; [1]): 6 µM

COc1cc(OC)cc(S(=O)(=O)Nc2cc(OC)ccc2OC)c1 [ureainh-201, N-(2,5-dimethoxyphenyl)-3,5-dimethoxybenzene sulfonamide]
EC50 (UT-B; [2]): 0.3 µM
inhibition of rat UT-A1 (rat UT-A1): Neither ureainh-201 at 25 μM nor ureainh-404 at 25 μM significantly inhibited

CC(=O)c1cccc(S(=O)(=O)Nc2ccc3c(c2)OCCO3)c1 [ureainh-210, 3-acetyl-N-(2,3-dihydrobenzo [b][1,4]dioxin-6-yl) Benzenesulfonamide]
EC50 (UT-B; [1]): 6 µM

COc1ccc(OC)c(NS(=O)(=O)c2ccc(Br)cc2)c1 [ureainh-202, 4-bromo-N-(2,5-dimethoxyphenyl) benzenesulfonamide]
EC50 (UT-B; [1]): 0.4 µM

COc1ccc(OC)c(NS(=O)(=O)c2cccc(Br)c2)c1 [ureainh-203, 3-bromo-N-(2,5-dimethoxyphenyl) benzenesulfonamide]
EC50 (UT-B; [1]): 0.7 µM

Cc1ccc(S(=O)(=O)Nc2ccc3c(c2)OCCO3)cc1C [ureainh-212, N-(2,3-dihydrobenzo[b][1,4]dioxin-6-yl)-3,4-dimethylbenzenesulfonamide]
EC50 (UT-B; [1]): 10 µM

Cn1c(=O)oc2cc(NS(=O)(=O)c3cccc(C(F)(F)F)c3)ccc21 [ureainh-217, N-(3-methyl-2-oxo-2,3-dihydrobenzo[d]oxazol-6-yl)-3-(trifluoromethyl) Benzenesulfonamide]
EC50 (UT-B; [1]): 4 µM

Cc1cc(C)cc(S(=O)(=O)Nc2ccc3c(c2)OCCO3)c1 [ureainh-208, N-(2,3-dihydrobenzo [b][1,4]dioxin-6-yl)-3,5-dimethylbenzenesulfonamide]
EC50 (UT-B; [1]): 4 µM

CCn1c(NCc2cc(Br)ccc2O)nc2ccccc21 [ureainh-404]
EC50 (UT-B; [2]): 0.4 µM
inhibition of rat UT-A1 (rat UT-A1): Neither ureainh-201 at 25 μM nor ureainh-404 at 25 μM significantly inhibited

O=S(=O)(Nc1ccc2c(c1)OCCO2)c1ccc2ccccc2c1 [ureainh-213, N-(2,3-dihydrobenzo[b][1,4]dioxin-6-yl)naphthalene-2-sulfonamide]
EC50 (UT-B; [1]): 10 µM

O=S(=O)(Nc1ccc2c(c1)OCCO2)c1cccc(Br)c1 [ureainh-211, 3-bromo-N-(2,3-dihydrobenzo[b][1,4]dioxin-6-y])benzenesulfonamide]
EC50 (UT-B; [1]): 8 µM

O=C(CCc1ccc(O)cc1)c1c(O)cc(O)cc1O [phloretin, reference compound]
UT-A1-facilitated urea transport (rat UT-A1; phloretin 0.7 mM, forskolin-stimulated): inhibited
reduction in Pf (RBCs from wild-type mice; 0.7 mM): small but significant reduction
effect on water transport (RBCs from wild-type mice; inhibitors 25 μM, phloretin 0.7 mM, 10° C.): little effect on water transport
concentration exhibiting activity (UT): > 0.5 mM
